The structures appear in SMILES notation. Structures can show the parent of a compound that is named as a salt.

Chain of human GlyT1c transporter (P48067 whole entry): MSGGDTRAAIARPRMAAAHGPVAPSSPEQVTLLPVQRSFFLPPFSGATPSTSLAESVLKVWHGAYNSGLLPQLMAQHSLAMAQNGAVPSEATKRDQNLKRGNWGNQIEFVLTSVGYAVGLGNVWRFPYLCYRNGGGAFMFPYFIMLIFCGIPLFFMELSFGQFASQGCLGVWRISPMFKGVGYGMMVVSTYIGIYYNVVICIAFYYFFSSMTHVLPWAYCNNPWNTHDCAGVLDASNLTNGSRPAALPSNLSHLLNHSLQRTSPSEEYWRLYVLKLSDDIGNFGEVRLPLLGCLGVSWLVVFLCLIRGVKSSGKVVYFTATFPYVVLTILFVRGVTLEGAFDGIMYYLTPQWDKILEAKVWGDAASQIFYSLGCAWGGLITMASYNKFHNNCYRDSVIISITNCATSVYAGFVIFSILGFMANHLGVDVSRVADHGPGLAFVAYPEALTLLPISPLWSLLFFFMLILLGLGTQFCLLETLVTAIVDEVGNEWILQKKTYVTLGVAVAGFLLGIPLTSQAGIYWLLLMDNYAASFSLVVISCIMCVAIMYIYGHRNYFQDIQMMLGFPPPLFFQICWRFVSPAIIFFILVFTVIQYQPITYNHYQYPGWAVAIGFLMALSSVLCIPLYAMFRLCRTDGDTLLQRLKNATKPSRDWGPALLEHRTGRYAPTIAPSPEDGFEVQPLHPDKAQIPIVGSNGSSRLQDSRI

The assay deals with human GlyT1c transporter (Homo sapiens (Human), UniProt P48067). The assay can be described thus: Radioligand binding assays using recombinant CHO cell membranes expressing human GlyT1. Particulars: read-out: radioligand binding Kiapp. The procedure:
Radioligand binding to human GlyT1c transporter-expressing membranes was determined as described in Mezler et al., Molecular Pharmacology 74:1705-1715, 2008.
Turning to `CN(C)CC(Cc1cccc(C(F)(F)F)c1)c1cccc(OCCNS(=O)(=O)c2cnn(C)c2)c1` (stereo not shown) [Example 28, 1-Methyl-1H-pyrazole-4-sulfonic acid (2-{3-[2-dimethylamino-1-(3-trifluoromethyl-benzyl)-ethyl]-phenoxy}-ethyl)-amide], the Ki was no more than 0.1 µM. As for `CN(C)CC(Cc1cccc(C(F)(F)F)c1)c1cccc(OCCNS(=O)(=O)c2cn(C)cn2)c1` (stereo not shown) [Example 29, 1-Methyl-1H-imidazole-4-sulfonic acid (2-{3-[2-dimethylamino-1-(3-trifluoromethyl-benzyl)-ethyl]-phenoxy}-ethyl)-amide], the Ki is no more than 0.1 µM. Next, `CN(C)CC(Cc1ccccc1)c1cc(OCCNS(=O)(=O)c2cnn(C)c2)ccc1Cl` (stereo not shown) [Example 30, 1-Methyl-1H-pyrazole-4-sulfonic acid {2-[3-(1-benzyl-2-dimethylamino-ethyl)-4-chloro-phenoxy]-ethyl}-amide, hydrochloride]: no more than 0.1 µM; `CN(C)CC(Cc1ccccc1)c1ccc(F)c(OCCNS(=O)(=O)c2cnn(C)c2)c1` (stereo not shown) [Example 31, 1-Methyl-1H-pyrazole-4-sulfonic acid {2-[5-(1-benzyl-2-dimethylamino-ethyl)-2-fluoro-phenoxy]-ethyl}-amide]: no more than 0.1 µM. On to `CN(C)CC(Cc1ccccc1)c1ccc(F)c(OCCNS(=O)(=O)c2cn(C)cn2)c1` (stereo not shown) [Example 32, 1-Methyl-1H-imidazole-4-sulfonic acid {2-[5-(1-benzyl-2-dimethylamino-ethyl)-2-fluoro-phenoxy]-ethyl}-amide], for which the Ki was no more than 0.1 µM. Next, `CN(C)CC(Cc1ccccc1)c1cc(OCCNS(=O)(=O)c2cnn(C)c2)ccc1F` (stereo not shown) [Example 33, 1-Methyl-1H-pyrazole-4-sulfonic acid {2-[3-(1-benzyl-2-dimethylamino-ethyl)-4-fluoro-phenoxy]-ethyl}-amide]: no more than 0.1 µM. With `Cn1cc(S(=O)(=O)NCCOc2cccc(C(Cc3ccccc3)CN3CCCC3)c2)cn1` (stereo not shown) [Example 34, 1-Methyl-1H-pyrazole-4-sulfonic acid {2-[3-(1-benzyl-2-pyrrolidin-1-yl-ethyl)phenoxy]-ethyl}-amide] the figure was no more than 1 µM; with `Cn1cnc(S(=O)(=O)NCCOc2cccc(C(Cc3ccccc3)CN3CCCC3)c2)c1` (stereo not shown) [Example 35, 1-Methyl-1H-imidazole-4-sulfonic acid {2-[3-(1-benzyl-2-pyrrolidin-1-yl-ethyl)phenoxy]-ethyl}-amide], no more than 1 µM. With `Cn1cc(S(=O)(=O)NCCOc2cccc(C(Cc3ccccc3)CN3CCC3)c2)cn1` (stereo not shown) [Example 36] the figure was no more than 1 µM; with `Cn1cc(S(=O)(=O)NCc2cccc(C(Cc3ccccc3)CN3CCC3)c2)cn1` (stereo not shown) [Example 37, 1-Methyl-1H-pyrazole-4-sulfonic acid 3-(2-azetidin-1-yl-1-benzyl-ethyl)benzylamide, hydrochloride], no more than 1 µM; with `CN(Cc1cccc(C(CNC(=O)OC(C)(C)C)C2(c3ccc(Cl)cc3)CCC2)c1)S(=O)(=O)c1cnn(C)c1` (stereo not shown) [Example 39, tert-Butyl {2-[1-(4-chlorophenyl)cyclobutyl]-2-[3-({methyl[(1-methyl-1H-pyrazol-4-yl)sulfonyl]amino}methyl)phenyl]ethyl}carbamate], no more than 10 µM. With `CCCS(=O)(=O)N(C)Cc1cccc(C(CNC(=O)OC(C)(C)C)C2(c3ccc(Cl)cc3)CCC2)c1` (stereo not shown) [Example 40, tert-Butyl {2-[1-(4-chlorophenyl)cyclobutyl]-2-(3-{[methyl(propylsulfonyl)amino]methyl}phenyl)ethyl}carbamate], the Ki is no more than 10 µM. With `CN(Cc1cccc(C(CNC(=O)OC(C)(C)C)C2(c3ccc(Cl)cc3)CCC2)c1)S(=O)(=O)c1cn(C)cn1` (stereo not shown) [Example 41, tert-Butyl {2-[1-(4-chlorophenyl)cyclobutyl]-2-[3-({methyl[(1-methyl-1H-imidazol-4-yl)sulfonyl]amino}methyl)phenyl]ethyl}carbamate] the figure was no more than 10 µM; with `CCCS(=O)(=O)N(C)Cc1cccc(C(CN)C2(c3ccc(Cl)cc3)CCC2)c1` (stereo not shown) [Example 42, N-(3-{2-Amino-1-[1-(4-chlorophenyl)cyclobutyl]ethyl}benzyl)-N-methylpropane-1-sulfonamide hydrochloride], no more than 10 µM. With `CN(Cc1cccc(C(CN)C2(c3ccc(Cl)cc3)CCC2)c1)S(=O)(=O)CCCF` (stereo not shown) [Example 43, N-(3-{2-Amino-1-[1-(4-chlorophenyl)cyclobutyl]ethyl}benzyl)-3-fluoro-N-methylpropane-1-sulfonamide hydrochloride] the figure was no more than 10 µM; with `CN(Cc1cccc(C(CN)C2(c3ccc(Cl)cc3)CCC2)c1)S(=O)(=O)c1cn(C)cn1` (stereo not shown) [Example 44, N-(3-{2-Amino-1-[1-(4-chlorophenyl)cyclobutyl]ethyl}benzyl)-N,1-dimethyl-1H-imidazole-4-sulfonamide hydrochloride], no more than 10 µM.

`CN(Cc1cccc(C(CN)C2(c3ccc(Cl)cc3)CCC2)c1)S(=O)(=O)c1cnn(C)c1` (stereo not shown) [Example 45, N-(3-{2-Amino-1-[1-(4-chlorophenyl)cyclobutyl]ethyl}benzyl)-N,1-dimethyl-1H-pyrazole-4-sulfonamide hydrochloride]: the Ki was no more than 10 µM. With `CCOC(=O)N1CC(Cc2ccccc2)(c2cccc(OCCNS(=O)(=O)c3cnn(C)c3)c2)C1` [Example 46, 3-Benzyl-3-{3-[2-(1-methyl-1H-pyrazole-4-sulfonylamino)-ethoxy]-phenyl}-azetidine-1-carboxylic acid ethyl ester] the figure was no more than 10 µM. With `CCOC(=O)N1CC(Cc2ccccc2)(c2cccc(OCCNS(=O)(=O)c3cn(C)cn3)c2)C1` [Example 47, 3-Benzyl-3-{3-[2-(1-methyl-1H-imidazole-4-sulfonylamino)-ethoxy]-phenyl}-azetidine-1-carboxylic acid ethyl ester], the Ki was no more than 1 µM. As to `CCOC(=O)N1CC(Cc2ccccc2)(c2cccc(OCCNS(=O)(=O)CC3CC3)c2)C1` [Example 48, 3-Benzyl-3-[3-(2-cyclopropylmethanesulfonylamino-ethoxy)-phenyl]-azetidine-1-carboxylic acid ethyl ester], the Ki is no more than 1 µM. With `O=S(=O)(CC1CC1)NCCOc1cccc(C2(Cc3ccccc3)CNC2)c1` [Example 49, N-{2-[3-(3-Benzyl-azetidin-3-yl)-phenoxy]-ethyl}-C-cyclopropyl-methane sulfonamide] the figure was no more than 1 µM; with `Cn1cc(S(=O)(=O)NCCOc2cccc(C3(Cc4ccccc4)CNC3)c2)cn1` [Example 50, 1-Methyl-1H-pyrazole-4-sulfonic acid {2-[3-(3-benzyl-azetidin-3-yl)-phenoxy]-ethyl}-amide], no more than 0.1 µM; with `Cn1cnc(S(=O)(=O)NCCOc2cccc(C3(Cc4ccccc4)CNC3)c2)c1` [Example 51, 1-Methyl-1H-imidazole-4-sulfonic acid {2-[3-(3-benzyl-azetidin-3-yl)phenoxy]-ethyl}-amide], no more than 0.1 µM.

Regarding `CN1CC(Cc2ccccc2)(c2ccc(F)c(OCCNS(=O)(=O)c3cn(C)cn3)c2)C1` [Example 52, 1-Methyl-1H-imidazole-4-sulfonic acid {2-[5-(3-benzyl-1-methyl-azetidin-3-yl)-2-fluoro-phenoxy]-ethyl}-amide], the Ki was no more than 0.1 µM. Next, `CN1CC(Cc2ccccc2)(c2ccc(F)c(OCCN(C)S(=O)(=O)c3cn(C)cn3)c2)C1` [Example 53, 1-Methyl-1H-imidazole-4-sulfonic acid {2-[5-(3-benzyl-1-methyl-azetidin-3-yl)-2-fluoro-phenoxy]-ethyl}-methyl-amide]: no more than 1 µM.

For the molecule `Cn1cnc(S(=O)(=O)NCCOc2cccc(C3(Cc4ccccc4)CN(CC(F)(F)F)C3)c2)c1` [Example 54, 1-Methyl-1H-imidazole-4-sulfonic acid (2-{3-[3-benzyl-1-(2,2,2-trifluoro-ethyl)azetidin-3-yl]-phenoxy}-ethyl)-amide], the Ki was no more than 1 µM. In the case of `Cn1cnc(S(=O)(=O)NCCOc2cccc(C3(Cc4ccccc4)CN(CC(F)F)C3)c2)c1` [Example 55, 1-Methyl-1H-imidazole-4-sulfonic acid (2-{3-[3-benzyl-1-(2,2-difluoro-ethyl)azetidin-3-yl]-phenoxy}-ethyl)-amide], the Ki is no more than 1 µM. Next, `Cn1cnc(S(=O)(=O)NCCOc2cccc(C3(Cc4ccccc4)CNC(=O)C3)c2)c1` (stereo not shown) [Example 56, 1-Methyl-1H-imidazole-4-sulfonic acid {2-[3-(3-benzyl-5-oxo-pyrrolidin-3-yl)-phenoxy]-ethyl}-amide]: no more than 1 µM; `O=C1CC(Cc2ccccc2)(c2cccc(OCCNS(=O)(=O)CC3CC3)c2)CN1` (stereo not shown) [Example 57, N-{2-[3-(3-Benzyl-5-oxo-pyrrolidin-3-yl)-phenoxy]-ethyl}-C-cyclopropyl-methanesulfonamide]: no more than 10 µM.

Take `Cn1cc(S(=O)(=O)NCCOc2cccc(C3(Cc4ccccc4)CNC(=O)C3)c2)cn1` (stereo not shown) [Example 58, 1-Methyl-1H-pyrazole-4-sulfonic acid {2-[3-(3-benzyl-5-oxo-pyrrolidin-3-yl)phenoxy]-ethyl}-amide]: the Ki was no more than 1 µM. With `O=S(=O)(CC1CC1)NCCOc1cccc(C2(Cc3ccccc3)CCNC2)c1` (stereo not shown) [Example 59, N-{2-[3-(3-Benzyl-pyrrolidin-3-yl)-phenoxy]-ethyl}-C-cyclopropyl-methanesulfonamide] the figure was no more than 0.1 µM. Next, `Cn1cc(S(=O)(=O)NCCOc2cccc(C3(Cc4ccccc4)CCNC3)c2)cn1` (stereo not shown) [Example 60, 1-Methyl-1H-pyrazole-4-sulfonic acid {2-[3-(3-benzyl-pyrrolidin-3-yl)phenoxy]-ethyl}-amide]: no more than 0.1 µM; `Cn1cnc(S(=O)(=O)NCCOc2cccc(C3(Cc4ccccc4)CCNC3)c2)c1` (stereo not shown) [Example 61, 1-Methyl-1H-imidazole-4-sulfonic acid {2-[3-(3-benzyl-pyrrolidin-3-yl)phenoxy]-ethyl}-amide]: no more than 0.1 µM.

For `CN1CCCC(Cc2ccccc2)(c2cccc(OCCNS(=O)(=O)c3cn(C)cn3)c2)C1` (stereo not shown) [Example 62, 1-Methyl-1H-imidazole-4-sulfonic acid {2-[3-(3-benzyl-1-methyl-piperidin-3-yl)-phenoxy]-ethyl}-amide], the Ki is no more than 0.1 µM.

Values taken from patent US9238619B2, “Phenalkylamine derivatives, pharmaceutical compositions containing them, and their use in therapy” (AbbVie Deutschland GmbH & Co. KG, priority 2010, dated 2016).
